Measurements published in article PMC6576746, “Rational discovery of dual-indication multi-target PDE/Kinase inhibitor for precision anti-cancer therapy using structural systems pharmacology” (PLoS Computational Biology, 2019).

What was measured:
Assay in all cases: biochemical
Set-up in all cases: DiscoverX KinomeScan competition binding assay across human kinases; per cent of control at 10 and 100 uM
[1] = target: T1, BRK (Homo sapiens, UniProt Q13882); details: competition binding, % of control; read-out: Percent Control (100 uM Levosimendan)
T1 construct: gene PTK6
Experimental: (§1) To validate our computational predictions, we employed a competition binding assay to detect the binding of levosimendan to 425 human kinases as well as its dose-response curve to RIOK1. The proprietary KinomeScan assay was performed by DiscoverX (Fremont, California, USA). The tests were performed at 10 μM and 100 μM concentrations of levosimendan, respectively. Assay results were reported as %control, calculated as follows: %control=(TestCompoundSignal−PositiveControlSignal)/(NegativeControlSignal−PositiveControlSignal)×100 KinomeScan assay across 452 human kinases verified our computational prediction (S1 Table). RIOK1 is one of the strongest inhibited kinases by levosimendan. The percentage control of RIOK1 is 15.0 and 0.0 under the treatment of 10 μM and 100 μM of levosimendan, respectively. […] The percentage controls of five kinases: FLT3, MAP2K5, PIP5K1A, GAK, and KIT are less than 30.0 under the treatment of both 10 μM and 100 μM of levosimendan. Both FLT3 and KIT are tyrosine protein kinases. Their inhibitors have recently been approved for the treatment of Acute Myeloid Leukemia and other types of cancers, but a combination therapy is needed to overcome rapidly emerged drug resistance, thus improve patients’ drug responses. Other kinases inhibited by levosimendan belong to serine/threonine protein kinase family (RIOK1, RIOK3, GAK, and MAP2K5) and lipid kinase family (PIP5K1A). […] As a result, levosimendan may modulate different cancer pathways from those by the tyrosine protein kinase inhibitors, and it could be a novel lead compound for a new anti-cancer therapy to overcome drug resistance of existing drugs or to target different types of cancers through polypharmacology or drug combination.

[2] = target: AXL (Homo sapiens, UniProt P30530); details: competition binding, % of control; read-out: Percent Control (100 uM Levosimendan)
Experimental: as §1

[3] = target: GSK3A (Homo sapiens, UniProt P49840); details: competition binding, % of control; read-out: Percent Control (100 uM Levosimendan)
Experimental: as §1

[4] = target: SRPK1 (Homo sapiens, UniProt Q96SB4); details: competition binding, % of control
SRPK1, sequence (Q96SB4 whole entry): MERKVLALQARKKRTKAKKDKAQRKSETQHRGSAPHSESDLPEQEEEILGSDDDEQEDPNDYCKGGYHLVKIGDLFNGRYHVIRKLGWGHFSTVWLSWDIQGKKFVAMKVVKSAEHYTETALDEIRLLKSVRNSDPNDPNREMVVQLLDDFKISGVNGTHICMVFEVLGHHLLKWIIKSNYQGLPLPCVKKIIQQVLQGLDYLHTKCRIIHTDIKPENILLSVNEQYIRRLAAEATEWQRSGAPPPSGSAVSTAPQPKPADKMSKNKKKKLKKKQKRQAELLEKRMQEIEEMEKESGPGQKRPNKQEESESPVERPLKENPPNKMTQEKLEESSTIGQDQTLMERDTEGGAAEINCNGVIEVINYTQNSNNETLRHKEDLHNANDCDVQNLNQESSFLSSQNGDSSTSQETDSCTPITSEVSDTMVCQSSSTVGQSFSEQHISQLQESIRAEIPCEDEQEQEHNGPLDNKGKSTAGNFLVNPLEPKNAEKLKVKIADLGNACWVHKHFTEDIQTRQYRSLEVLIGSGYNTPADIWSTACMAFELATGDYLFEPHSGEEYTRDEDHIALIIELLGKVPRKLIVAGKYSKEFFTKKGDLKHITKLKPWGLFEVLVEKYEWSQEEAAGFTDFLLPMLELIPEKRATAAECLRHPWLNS
Experimental: as §1

[5] = target: PIK3CD (Homo sapiens, UniProt O00329); details: competition binding, % of control; read-out: Percent Control (100 uM Levosimendan)
Experimental: as §1

[6] = target: TLK2 (Homo sapiens, UniProt Q86UE8); details: competition binding, % of control; read-out: Percent Control (100 uM Levosimendan)
Experimental: as §1

[7] = target: EGFR(T790M) (Homo sapiens, UniProt P00533, T790M); details: competition binding, % of control
EGFR(T790M), sequence (P00533 whole entry T790M): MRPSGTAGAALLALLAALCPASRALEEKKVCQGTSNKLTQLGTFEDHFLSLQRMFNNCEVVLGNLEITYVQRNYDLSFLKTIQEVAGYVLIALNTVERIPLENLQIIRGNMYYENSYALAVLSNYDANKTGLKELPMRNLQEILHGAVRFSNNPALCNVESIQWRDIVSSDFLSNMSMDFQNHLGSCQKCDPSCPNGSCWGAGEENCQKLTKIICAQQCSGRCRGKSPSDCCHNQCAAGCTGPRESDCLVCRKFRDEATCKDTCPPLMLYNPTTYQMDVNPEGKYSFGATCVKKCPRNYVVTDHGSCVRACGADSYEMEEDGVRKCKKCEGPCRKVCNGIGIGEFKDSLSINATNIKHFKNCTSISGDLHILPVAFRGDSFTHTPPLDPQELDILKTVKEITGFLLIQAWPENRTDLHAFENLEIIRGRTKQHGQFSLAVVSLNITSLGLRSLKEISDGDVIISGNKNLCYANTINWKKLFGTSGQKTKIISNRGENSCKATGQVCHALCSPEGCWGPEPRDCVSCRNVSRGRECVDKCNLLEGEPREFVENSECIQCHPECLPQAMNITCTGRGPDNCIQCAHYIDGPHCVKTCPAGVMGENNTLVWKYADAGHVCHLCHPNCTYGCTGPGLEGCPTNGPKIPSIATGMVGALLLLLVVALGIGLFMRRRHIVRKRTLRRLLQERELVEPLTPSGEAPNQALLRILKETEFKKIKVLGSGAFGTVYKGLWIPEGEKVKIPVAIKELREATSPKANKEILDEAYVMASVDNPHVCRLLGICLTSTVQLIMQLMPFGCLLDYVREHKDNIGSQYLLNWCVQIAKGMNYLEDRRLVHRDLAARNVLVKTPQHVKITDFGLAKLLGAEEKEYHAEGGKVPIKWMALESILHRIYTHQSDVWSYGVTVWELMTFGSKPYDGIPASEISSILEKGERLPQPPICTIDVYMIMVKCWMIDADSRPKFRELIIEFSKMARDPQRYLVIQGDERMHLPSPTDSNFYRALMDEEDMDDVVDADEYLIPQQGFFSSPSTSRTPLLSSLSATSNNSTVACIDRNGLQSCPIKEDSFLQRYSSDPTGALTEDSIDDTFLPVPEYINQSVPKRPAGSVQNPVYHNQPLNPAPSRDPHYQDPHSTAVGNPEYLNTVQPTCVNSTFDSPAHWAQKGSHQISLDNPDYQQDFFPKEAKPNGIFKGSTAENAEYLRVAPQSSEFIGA
Experimental: as §1

[8] = target: SGK2 (Homo sapiens, UniProt Q9HBY8); details: competition binding, % of control; read-out: Percent Control (100 uM Levosimendan)
Experimental: as §1

[9] = target: GRK7 (Homo sapiens, UniProt Q8WTQ7); details: competition binding, % of control; read-out: Percent Control (100 uM Levosimendan)
Experimental: as §1

[10] = target: PLK4 (Homo sapiens, UniProt O00444); details: competition binding, % of control
PLK4, sequence (O00444 whole entry): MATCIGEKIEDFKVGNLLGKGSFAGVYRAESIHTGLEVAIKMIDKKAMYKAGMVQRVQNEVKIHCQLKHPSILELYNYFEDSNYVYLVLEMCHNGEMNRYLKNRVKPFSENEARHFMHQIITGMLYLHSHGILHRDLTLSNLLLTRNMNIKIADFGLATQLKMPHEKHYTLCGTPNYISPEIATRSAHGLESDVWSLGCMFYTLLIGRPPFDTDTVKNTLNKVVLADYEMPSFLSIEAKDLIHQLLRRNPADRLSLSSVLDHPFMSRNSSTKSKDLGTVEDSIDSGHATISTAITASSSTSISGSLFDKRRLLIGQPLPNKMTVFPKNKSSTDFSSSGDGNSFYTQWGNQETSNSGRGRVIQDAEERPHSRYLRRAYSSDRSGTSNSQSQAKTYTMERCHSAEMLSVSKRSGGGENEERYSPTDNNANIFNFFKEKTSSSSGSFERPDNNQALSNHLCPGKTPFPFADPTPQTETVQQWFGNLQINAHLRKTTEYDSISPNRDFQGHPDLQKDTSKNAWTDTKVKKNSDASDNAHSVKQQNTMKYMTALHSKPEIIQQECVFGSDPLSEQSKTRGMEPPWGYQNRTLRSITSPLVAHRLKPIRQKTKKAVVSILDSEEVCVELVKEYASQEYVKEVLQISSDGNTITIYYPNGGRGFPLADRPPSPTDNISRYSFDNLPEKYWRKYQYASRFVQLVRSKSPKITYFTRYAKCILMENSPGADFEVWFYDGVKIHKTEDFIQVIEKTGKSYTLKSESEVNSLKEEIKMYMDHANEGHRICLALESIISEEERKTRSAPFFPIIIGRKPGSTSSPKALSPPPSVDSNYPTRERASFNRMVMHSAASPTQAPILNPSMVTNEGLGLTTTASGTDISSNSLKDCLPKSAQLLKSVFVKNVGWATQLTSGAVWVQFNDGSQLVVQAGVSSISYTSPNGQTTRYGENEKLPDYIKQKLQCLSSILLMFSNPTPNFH
Experimental: as §1

[11] = target: EPHA8 (Homo sapiens, UniProt P29322); details: competition binding, % of control; read-out: Percent Control (100 uM Levosimendan)
Experimental: as §1

[12] = target: CHEK2 (Homo sapiens, UniProt O96017); details: competition binding, % of control
CHEK2, sequence (O96017 whole entry): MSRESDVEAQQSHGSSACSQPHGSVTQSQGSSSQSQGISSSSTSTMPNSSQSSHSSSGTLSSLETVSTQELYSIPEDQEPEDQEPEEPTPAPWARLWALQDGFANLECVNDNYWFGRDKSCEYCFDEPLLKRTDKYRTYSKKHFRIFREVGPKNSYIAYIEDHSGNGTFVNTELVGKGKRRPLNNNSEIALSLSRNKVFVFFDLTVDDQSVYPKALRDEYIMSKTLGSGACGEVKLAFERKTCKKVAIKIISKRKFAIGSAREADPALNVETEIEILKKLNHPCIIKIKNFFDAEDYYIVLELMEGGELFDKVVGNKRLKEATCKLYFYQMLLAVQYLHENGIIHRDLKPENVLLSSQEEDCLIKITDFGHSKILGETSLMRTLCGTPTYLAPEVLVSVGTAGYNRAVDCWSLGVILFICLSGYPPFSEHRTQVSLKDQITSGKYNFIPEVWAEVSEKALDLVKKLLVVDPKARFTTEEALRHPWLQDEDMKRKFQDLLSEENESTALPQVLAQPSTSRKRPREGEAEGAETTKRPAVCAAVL
Experimental: as §1

[13] = target: PHKG2 (Homo sapiens, UniProt P15735); details: competition binding, % of control
PHKG2, sequence (P15735 whole entry): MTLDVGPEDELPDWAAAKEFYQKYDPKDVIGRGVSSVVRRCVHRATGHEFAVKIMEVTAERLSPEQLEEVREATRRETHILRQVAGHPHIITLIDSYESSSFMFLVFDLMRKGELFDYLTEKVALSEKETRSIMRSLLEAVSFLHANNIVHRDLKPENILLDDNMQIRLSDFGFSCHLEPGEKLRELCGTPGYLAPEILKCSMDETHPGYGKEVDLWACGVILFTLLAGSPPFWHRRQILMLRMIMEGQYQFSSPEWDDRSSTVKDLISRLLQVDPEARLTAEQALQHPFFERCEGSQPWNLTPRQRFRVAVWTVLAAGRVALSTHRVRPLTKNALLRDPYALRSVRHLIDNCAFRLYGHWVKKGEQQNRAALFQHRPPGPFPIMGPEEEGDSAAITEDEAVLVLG
Experimental: as §1

[14] = target: TAOK1 (Homo sapiens, UniProt Q7L7X3); details: competition binding, % of control; read-out: Percent Control (100 uM Levosimendan)
Experimental: as §1

[15] = target: T2, LKB1 (Homo sapiens, UniProt Q15831); details: competition binding, % of control; read-out: Percent Control (100 uM Levosimendan)
T2 construct: gene STK11
Experimental: as §1

[16] = target: AKT1 (Homo sapiens, UniProt P31749); details: competition binding, % of control; read-out: Percent Control (100 uM Levosimendan)
Experimental: as §1

[17] = target: PIP5K1C (Homo sapiens, UniProt O60331); details: competition binding, % of control
PIP5K1C, sequence (O60331 whole entry): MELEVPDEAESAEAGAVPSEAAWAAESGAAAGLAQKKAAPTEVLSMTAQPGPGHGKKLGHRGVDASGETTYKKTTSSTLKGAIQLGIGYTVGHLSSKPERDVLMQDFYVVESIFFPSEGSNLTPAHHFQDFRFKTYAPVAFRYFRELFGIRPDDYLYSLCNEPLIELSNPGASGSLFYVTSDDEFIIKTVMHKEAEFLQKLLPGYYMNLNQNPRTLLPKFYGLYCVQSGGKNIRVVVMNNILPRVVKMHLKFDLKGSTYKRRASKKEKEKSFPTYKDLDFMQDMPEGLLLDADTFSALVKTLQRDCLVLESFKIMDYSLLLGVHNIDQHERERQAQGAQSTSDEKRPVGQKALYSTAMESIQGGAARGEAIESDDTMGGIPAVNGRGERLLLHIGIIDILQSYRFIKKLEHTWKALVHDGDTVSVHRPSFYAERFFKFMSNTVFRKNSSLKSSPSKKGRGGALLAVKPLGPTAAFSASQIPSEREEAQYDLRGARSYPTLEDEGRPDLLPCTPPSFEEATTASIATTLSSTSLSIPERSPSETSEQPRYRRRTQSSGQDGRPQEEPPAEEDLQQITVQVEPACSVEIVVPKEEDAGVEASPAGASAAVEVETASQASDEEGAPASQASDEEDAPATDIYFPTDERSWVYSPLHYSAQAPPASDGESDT
Experimental: as §1

[18] = target: CDK8 (Homo sapiens, UniProt P49336); details: competition binding, % of control; read-out: Percent Control (100 uM Levosimendan)
CDK8, sequence (P49336 whole entry): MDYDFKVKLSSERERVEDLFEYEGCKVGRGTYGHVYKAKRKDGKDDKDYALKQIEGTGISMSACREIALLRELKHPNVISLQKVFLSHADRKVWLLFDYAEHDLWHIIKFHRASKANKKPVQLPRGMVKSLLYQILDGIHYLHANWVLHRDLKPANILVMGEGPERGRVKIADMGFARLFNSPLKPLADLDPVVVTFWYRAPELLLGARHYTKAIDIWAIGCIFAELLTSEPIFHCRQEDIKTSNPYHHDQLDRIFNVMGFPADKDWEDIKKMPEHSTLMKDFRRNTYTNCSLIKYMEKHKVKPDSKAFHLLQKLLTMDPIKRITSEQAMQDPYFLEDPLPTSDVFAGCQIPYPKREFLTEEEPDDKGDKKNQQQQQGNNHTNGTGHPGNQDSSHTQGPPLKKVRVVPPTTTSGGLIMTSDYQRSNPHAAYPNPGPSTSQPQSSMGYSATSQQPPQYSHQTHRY
Experimental: as §1

[19] = target: TEC (Homo sapiens, UniProt P42680); details: competition binding, % of control; read-out: Percent Control (100 uM Levosimendan)
Experimental: as §1

[20] = read-out: Percent Control (10 uM Levosimendan)
[21] = read-out: Percent Control (100 uM Levosimendan)

SMILES: C[C@@H]1CC(=O)NN=C1c1ccc(NN=C(C#N)C#N)cc1 [levosimendan]
- remaining binding at 100 µM [1]: 85%
- remaining binding at 100 µM [2]: 83%
- remaining binding at 100 µM [3]: 100%
- remaining binding at 10 µM [4, 20]: 36%
- remaining binding at 100 µM [4, 21]: 40%
- remaining binding at 100 µM [5]: 100%
- remaining binding at 100 µM [6]: 97%
- remaining binding at 10 µM [7, 20]: 88%
- remaining binding at 100 µM [7, 21]: 31%
- remaining binding at 100 µM [8]: 90%
- remaining binding at 100 µM [9]: 100%
- remaining binding at 10 µM [10, 20]: 100%
- remaining binding at 100 µM [10, 21]: 45%
- remaining binding at 100 µM [11]: 91%
- remaining binding at 10 µM [12, 20]: 41%
- remaining binding at 100 µM [12, 21]: 0.65%
- remaining binding at 10 µM [13, 20]: 55%
- remaining binding at 100 µM [13, 21]: 47%
- remaining binding at 100 µM [14]: 100%
- remaining binding at 100 µM [15]: 100%
- remaining binding at 100 µM [16]: 56%
- remaining binding at 10 µM [17, 20]: 91%
- remaining binding at 100 µM [17, 21]: 50%
- remaining binding at 100 µM [18]: 100%
- remaining binding at 100 µM [19]: 74%
